Like-named read-outs stand apart in the source and are kept apart here.
Key:
[1] = log P determination by LC-MS in the acidic range; type: physicochemical
Description: The LC-MS determination in the acidic range is effected at pH 2.7 using 0.1% aqueous formic acid and acetonitrile (contains 0.1% formic acid) as eluents, linear gradient from 10% acetonitrile to 95% acetonitrile. Alternatively, the determination is effected in the acidic range at pH 2.3 using 0.1% aqueous phosphoric acid and acetonitrile as eluents; linear gradient from 10% acetonitrile to 95% acetonitrile.

Myzus persicae = Myzus persicae - sachet test; type: in vivo; settings: 100% = all animals killed
Method: Myzus persicae—Sachet Test Solvent: 2% by vol. of N-methylpyrrolidone • 2% by vol. of diacetone alcohol To produce an appropriate active ingredient formulation, the active ingredient is mixed with the specified amounts of solvent and the concentrate is diluted to the desired concentration with water. The active ingredient formulation is added to a specific nutrient medium in the desired concentration by pipetting. This plate is sealed and combined with a further plate populated with the green peach aphid (Myzus persicae). After the desired time, the kill in % is determined. 100% means that all the animals have been killed; 0% means that no animals have been killed.

[2] = Table 2, compounds of the formula (I-2), acidic range pH 2.7 or pH 2.3
[3] = application rate of 30 ppm in nutrient medium
[4] = application rate of 6 ppm in nutrient medium
[5] = Myzus persicae, application rate of 30 ppm in nutrient medium, read-out: efficacy (kill in %)
[6] = pH 2.7, LC-MS in the acidic range, read-out: log P (acid)
[7] = pH 2.7, values given in the synthesis examples and NMR lists, read-out: HPLC-MS: log P
[8] = amines of the formula (II-1), acidic range pH 2.7 (0.1% formic acid/acetonitrile) or pH 2.3 (0.1% phosphoric acid/acetonitrile)
[9] = Table 4, HPLC on reversed-phase column (C 18), 55° C., acidic range (pH 2.7 or pH 2.3)
[10] = Table 3, HPLC on reversed-phase column (C 18), 55° C., acidic range (pH 2.7 or pH 2.3)

Cc1cc(C)nc(-n2cnc(NC(=O)c3cccnc3)n2)n1 [Compound I-2-22]
log P (acid) [1, 2]: 0.86 | efficacy (kill in %) (Myzus persicae; [3]): 80%

COc1cccc(Cn2ccc(NC(=O)c3cccnc3)n2)c1 [Compound I-1-74]
log P (acid) ([1]; LC-MS in the acidic range): 1.57 | efficacy (kill in %) (Myzus persicae; [4]): 100% | efficacy (kill in %) (Myzus persicae; [3]): 100%

Cc1cc(NC(=O)c2cccnc2)nn1Cc1cn2cc(F)ccc2n1 [Compound I-1-159]
log P (acid) ([1]; LC-MS in the acidic range): 0.66 | efficacy (kill in %) (Myzus persicae; [4]): 100% | efficacy (kill in %) (Myzus persicae; [3]): 100%

O=C(Nc1cnn(-c2ccc(C(F)(F)F)cn2)n1)c1cccnc1 [Compound I-3-14, N-{2-[5-(Trifluoromethyl)pyridin-2-yl]-2H-1,2,3-triazol-4-yl}nicotinamide]
chromatographic logP ([1]; reversed-phase HPLC column (C18), pH 2.7, Table 3, HPLC on reversed-phase column (C 18), 55° C., acidic range (pH 2.7 or pH 2.3), read-out: log P (acid)): 1.91 | chromatographic logP ([1]; reversed-phase HPLC column (C18), pH 2.7, values given in the synthesis examples and NMR lists, read-out: HPLC-MS: log P): 1.91 | pest or weed control at 6 ppm (Myzus persicae; Myzus persicae, application rate of 6 ppm in nutrient medium, read-out: efficacy (kill in %)): 100% | pest or weed control at 30 ppm (Myzus persicae; [5]): 100%

CC(C)(C)c1ccc(Cn2ccc(NC(=O)c3ccc(Cl)nc3)n2)cc1 [Compound I-1-86]
log P (acid) ([1]; LC-MS in the acidic range): 3.54 | efficacy (kill in %) (Myzus persicae; [3]): 100%

Cc1cc(NC(=O)c2cccnc2)nn1C(=O)NCc1cccc(Cl)c1 [Compound I-1-324]
log P (acid) ([1]; LC-MS in the acidic range): 2.39 | efficacy (kill in %) (Myzus persicae; [4]): 100% | efficacy (kill in %) (Myzus persicae; [3]): 100%

Cc1cc(NC(=O)c2cccnc2)nn1C=C(F)c1ccc(Cl)cn1 [Compound I-1-306]
log P (acid) ([1]; LC-MS in the acidic range): 2.31 | efficacy (kill in %) (Myzus persicae; [3]): 100%

Cc1cc(NC(=O)c2cccnc2)nn1CC(F)(F)c1ccc(F)cn1 [Compound I-1-294]
log P (acid) ([1]; LC-MS in the acidic range): 1.77 | efficacy (kill in %) (Myzus persicae; [3]): 100%

Cc1cc(NC(=O)c2cccnc2)nn1-c1ccccc1Cl [Compound I-1-213]
log P (acid) ([1]; LC-MS in the acidic range): 1.86 | efficacy (kill in %) (Myzus persicae; [3]): 100%

Cc1cc(NC(=O)c2cccnc2)nn1-c1ccccc1 [Compound I-1-349]
log P (acid) ([1]; LC-MS in the acidic range): 1.7 | efficacy (kill in %) (Myzus persicae; [3]): 100%

Cc1cc(NC(=O)c2cccnc2)nn1CS(=O)(=O)c1ncccn1 [Compound I-1-236]
log P (acid) ([1]; LC-MS in the acidic range): 0.74 | efficacy (kill in %) (Myzus persicae; [4]): 100% | efficacy (kill in %) (Myzus persicae; [3]): 100%

Cc1ccc2oc(Cn3nc(NC(=O)c4cccnc4)cc3C)nc2c1 [Compound I-1-353]
log P (acid) ([1]; LC-MS in the acidic range): 1.9 | efficacy (kill in %) (Myzus persicae; [4]): 100% | efficacy (kill in %) (Myzus persicae; [3]): 100%

CCc1cc(NC(=O)c2cccnc2)nn1Cc1ccccc1 [Compound I-1-35, N-(1-Benzyl-5-ethyl-1H-pyrazol-3-yl)nicotinamide]
chromatographic logP [1, 6]: 2.03 | chromatographic logP [1, 7]: 2.03 | pest or weed control at 30 ppm (Myzus persicae; [5]): 100%

Cc1cc(NC(=O)c2cccnc2)nn1Cc1nnc(-c2ccccc2)o1 [Compound I-1-299]
log P (acid) ([1]; LC-MS in the acidic range): 1.57 | efficacy (kill in %) (Myzus persicae; [4]): 100% | efficacy (kill in %) (Myzus persicae; [3]): 100%

O=C(Nc1nn(Cc2ncccn2)cc1F)c1cccnc1 [Compound I-1-267]
log P (acid) ([1]; LC-MS in the acidic range): 0.42 | efficacy (kill in %) (Myzus persicae; [3]): 100%

O=C(Nc1ccn(Cc2ccc(F)cc2F)n1)c1cccnc1 [Compound I-1-76]
log P (acid) ([1]; LC-MS in the acidic range): 1.68 | efficacy (kill in %) (Myzus persicae; [4]): 100% | efficacy (kill in %) (Myzus persicae; [3]): 100%

Cc1cc(NC(=O)c2cccnc2)nn1C(=O)NCc1ccccc1Cl [Compound I-1-323]
log P (acid) ([1]; LC-MS in the acidic range): 2.29 | efficacy (kill in %) (Myzus persicae; [4]): 100% | efficacy (kill in %) (Myzus persicae; [3]): 100%

Cc1nc2c(c(NC(=O)c3cncc(F)c3)nn2C)c(C)c1C [Compound I-1-57]
log P (acid) ([1]; LC-MS in the acidic range): 1.6 | efficacy (kill in %) (Myzus persicae; [4]): 100% | efficacy (kill in %) (Myzus persicae; [3]): 100%

CCOC(=O)Cn1nc(NC(=O)c2cncc(F)c2)cc1C [Compound I-1-59]
log P (acid) ([1]; LC-MS in the acidic range): 1.53

Cc1cc(N)nn1Cn1nc(C)n(C)c1=O [II-1-46]
log P (acid) [1, 8]: <−0.23

Cc1cc(NC(=O)c2cncc(F)c2)nn1CC(=O)O [Compound I-1-114]
log P (acid) ([1]; LC-MS in the acidic range): 0.87

Cc1cc(N)nn1CN1CCCNC1=O [II-1-57]
log P (acid) [1, 8]: <−0.23

Cn1nc(NC(=O)c2cccnc2)c(C#N)c1[S+](C)[O-] (stereo not shown) [Compound I-1-141]
log P (acid) ([1]; LC-MS in the acidic range): 0.06

C#CCn1nc(N)cc1C [II-1-20]
log P (acid) [1, 8]: −0.15

Nc1cc(C(F)(F)F)n(Cc2ncccn2)n1 [II-1-35]
log P (acid) [1, 8]: 1.06

Cc1cc(N)nn1CC1CC1(Cl)Cl (stereo not shown) [II-1-53]
log P (acid) [1, 8]: 1.12

Cc1cc(N)nn1CCCl [II-1-13]
log P (acid) [1, 8]: 0.13

Cc1cc(C(=O)O)nn1Cc1ncccn1 [5-Methyl-1-(pyrimidin-2-ylmethyl)-1H-pyrazole-3-carboxylic acid]
chromatographic logP [1, 7]: 0.45

Cc1nc(-n2cnc(NC(=O)c3cccnc3)n2)nc(C)c1C [Compound I-2-25]
log P (acid) [1, 2]: 1.07

O=C(Nc1nnn(Cc2ccccc2)n1)c1cccnc1 [Compound I-4-10]
log P (acid) [1, 9]: 1.38

Cc1cc(NC(=O)c2cncc(Br)c2)nn1Cc1cccc(F)c1 [Compound I-1-107]
log P (acid) ([1]; LC-MS in the acidic range): 2.71

COc1ccc(-n2nc(NC(=O)c3cccnc3)cc2C)cc1 [Compound I-1-200]
log P (acid) ([1]; LC-MS in the acidic range): 1.34

Cc1nn(-c2ccccc2Cl)nc1NC(=O)c1cccnc1 [Compound I-3-23]
log P (acid) [1, 10]: 1.71

Cc1ccn(Cn2nc(N)cc2C)n1 [II-1-38]
log P (acid) [1, 8]: 0.55

CCCn1nnc(NC(=O)c2cccnc2)n1 [Compound I-4-9]
log P (acid) [1, 9]: 0.76

O=C(Nc1cnn(-c2c(F)cccc2F)n1)c1cccnc1 [Compound I-3-24]
log P (acid) [1, 10]: 1.67

Cc1cc(N)nn1Cc1ccc(Cl)nc1 [II-1-5]
log P (acid) [1, 8]: 0.77

Cc1cc(NC(=O)c2ccc(Cl)nc2)nn1Cc1cccc(F)c1 [Compound I-1-106]
log P (acid) ([1]; LC-MS in the acidic range): 2.6

Nc1cc(C2CC2)n(Cc2ccccc2)n1 [II-1-2]
log P (acid) [1, 8]: 1.36

Cc1ccc(-n2nc(NC(=O)c3cccnc3)cc2C)cc1 [Compound I-1-193]
log P (acid) ([1]; LC-MS in the acidic range): 2.02

Cc1nn(-c2ncc(Cl)cc2Cl)nc1NC(=O)c1cccnc1 [Compound I-3-17]
log P (acid) [1, 10]: 1.74

O=C(Nc1ccn(Cc2ncc(C(F)(F)F)cc2Cl)n1)c1ccc(Cl)nc1 [Compound I-1-118, 6-Chloro-N-(1-{[3-chloro-5-(trifluoromethyl)pyridin-2-yl]methyl}-1H-pyrazol-3-yl)nicotinamide]
chromatographic logP [1, 6]: 2.64 | chromatographic logP [1, 7]: 2.64

COc1cc(OC)nc(-n2cnc(NC(=O)c3cccnc3)n2)n1 [Compound I-2-24]
log P (acid) [1, 2]: 1.11

Cc1cc(N(Cc2ccc3nsnc3c2)C(=O)c2cccnc2)nn1Cc1ccc2nsnc2c1 [Compound I-1-343]
log P (acid) ([1]; LC-MS in the acidic range): 2.57

Cc1cc(N)nn1Cn1ccnn1 [II-1-45]
log P (acid) [1, 8]: <−0.23

Cc1cc(N)nn1-c1ncccc1Cl [II-1-31]
log P (acid) [1, 8]: 0.79

O=C(Nc1nn(-c2ncccc2Cl)nc1Cl)c1cccnc1 [Compound I-3-21]
log P (acid) [1, 10]: 1.51

Cn1nc(N)cc1C(F)F [II-1-40]
log P (acid) [1, 8]: 0.22

Cc1cc(N)nn1Cc1cccc(OC(F)(F)F)c1 [II-1-11]
log P (acid) [1, 8]: 1.39

Cc1cc(NC(=O)OC(C)(C)C)nn1Cc1ncccn1 [tert-Butyl[5-methyl-1-(pyrimidin-2-ylmethyl)-1H-pyrazol-3-yl]carbamate]
chromatographic logP [1, 7]: 1.75

Cc1ccnc(Cn2nc(N)cc2C)n1 [II-1-16]
log P (acid) [1, 8]: 0.02

Nc1cc(C2CC2)n(Cc2ccc(Cl)nc2)n1 [II-1-1]
log P (acid) [1, 8]: 1.21

Cc1cc(NC(=O)c2ccnnc2)nn1Cn1ccc(C(F)(F)F)n1 [Compound I-1-255]
log P (acid) ([1]; LC-MS in the acidic range): 1.73

CCCn1cnc(NC(=O)c2cccnc2)n1 [Compound I-2-21]
log P (acid) [1, 2]: 0.29
